In patent US3968230A, “Compositions containing benzodiazepindiones and method of use” (American Cyanamid Company, priority 1975, dated 1976):

System: Clonic Seizures Caused by Pentylenetetrazole
Experiment: Protection against clonic seizures caused by pentylenetetrazole in rats
Format: in vivo
Conditions: oral; for ED50: Rattus norvegicus, 2% starch vehicle, groups of at least 5 rats, pentylenetetrazole 21 to 23 mg/kg i.v. at estimated time of peak effect, protection of 50% of animals (Litchfield and Wilcoxon), read-out: Median Effective Oral Dose ED50 (protection against clonic seizures caused by pentylenetetrazole); for effectiveness as anxiolytic agent relative to the respective dextrorotatory and racemic forms of the desmethyl prior art compound (Compounds 3 and 4): rats, from ED50 table
Procedure: The anti-anxiety properties of the active components of the present invention have been established in a test which indicates anxiolytic activity by a measure of protection from convulsions resulting from the administration of pentylenetetrazol. Graded dose levels of the dextro and racemic forms of the compound 1,2,3,11a-tetrahydro-10-mthyl-5H-pyrrolo[2,1-c] [1,4]benzodiazepin-5,11(10H)-dione are administered orally, in a 2% starch vehicle, to groups of at least 5 rats. At the estimated time of peak effect, the rats are treated intravenously with pentylenetetrazole at a dose of 21 to 23 mg./kg. of body weight. This dose is estimated to cause clonic seizures in 99% of unprotected rats. The effective dose of the test compound for protection of 50% of the animals is calculated by the method of J. T. Litchfield and F. Wilcoxon, Journal of Pharmacology and Experimental Therapeutics, 96, 99 (1949). The results are given in the table which follows in comparison with Librium (chlordiazepoxide), Valium (diazepam) and the dextro and racemic forms of 1,2,3,11 a-tetrahydro-5H-pyrrolo[2,1-c] [1,4]benzodiazepin-5,11(10H)-dione (U.S. Pat. No. 3,732,212) all of which were tested in exactly the same manner. It has been reported [R. T. Hill and D. R. Tedeschi, "Animal Testing and Screening Procedures in Evaluating Psychotropic Drugs" in An Introduction to Psychopharmacology, Eds. R. R. Rech and K. E. Moore, Raven Press, New York, pp. 237-288 (1971) that there is a high degree of correlation between antagonism of pentylenetetrazole seizures in rats and antianxiety effects in higher warm-blooded animals.

| Compound | ED50 [mg/kg] | effectiveness as anxiolytic agent relative to the respective dextrorotatory and racemic forms of the desmethyl prior art compound (Compounds 3 and 4) |
| --- | --- | --- |
| CN1C(=O)C2CCCN2C(=O)c2ccccc21 (racemic) [Compound 2, Racemic-1,2,3,11a-tetrahydro-10-methyl-5H-pyrrolo[2,1-c][1,4]benzodiazepin-5,11(10H)-dione] | 20 | far more effective |
| O=C1Nc2ccccc2C(=O)N2CCCC12 (racemic) [Compound 4, Racemic-1,2,3,11a-tetrahydro-5H-pyrrolo[2,1-c]-[1,4]benzodiazepin-5,11(10H)-dione] | 70 |  |
| CN1C(=O)[C@@H]2CCCN2C(=O)c2ccccc21 [Compound 1, Dextro-1,2,3,11a-tetrahydro-10-methyl-5H-pyrrolo[2,1-c][1,4]benzodiazepin-5,11(10H)-dione] | 10 | far more effective |
| O=C1Nc2ccccc2C(=O)N2CCC[C@@H]12 [Compound 3, Dextro-1,2,3,11a-tetrahydro-5H-pyrrolo[2,1-c]-[1,4]-benzodiazepin-5,11(10H)-dione] | 35 |  |
| CNC1=Nc2ccc(Cl)cc2C(c2ccccc2)=[N+]([O-])C1 [Compound 5, chlordiazepoxide] | 2.5 |  |
| CN1C(=O)CN=C(c2ccccc2)c2cc(Cl)ccc21 [Compound 6, diazepam] | 1.8 |  |
